Here are results for 30 molecules from patent publication US10894807B2 (Siemens Medical Solutions USA, Inc., priority 2011, dated 2021).

Where only a bound is given, the exact number is not on record here.

The target in one experiment is human PSMA (Homo sapiens (Human), UniProt Q04609). As to the kind of experiment: Enzymatic assay for in vitro evaluation of PSMA inhibitors (fluorescent assay of PSMA activity, NAAG substrate, OPA detection of glutamate). It counts as biochemical.
human PSMA, sequence (Q04609 whole entry): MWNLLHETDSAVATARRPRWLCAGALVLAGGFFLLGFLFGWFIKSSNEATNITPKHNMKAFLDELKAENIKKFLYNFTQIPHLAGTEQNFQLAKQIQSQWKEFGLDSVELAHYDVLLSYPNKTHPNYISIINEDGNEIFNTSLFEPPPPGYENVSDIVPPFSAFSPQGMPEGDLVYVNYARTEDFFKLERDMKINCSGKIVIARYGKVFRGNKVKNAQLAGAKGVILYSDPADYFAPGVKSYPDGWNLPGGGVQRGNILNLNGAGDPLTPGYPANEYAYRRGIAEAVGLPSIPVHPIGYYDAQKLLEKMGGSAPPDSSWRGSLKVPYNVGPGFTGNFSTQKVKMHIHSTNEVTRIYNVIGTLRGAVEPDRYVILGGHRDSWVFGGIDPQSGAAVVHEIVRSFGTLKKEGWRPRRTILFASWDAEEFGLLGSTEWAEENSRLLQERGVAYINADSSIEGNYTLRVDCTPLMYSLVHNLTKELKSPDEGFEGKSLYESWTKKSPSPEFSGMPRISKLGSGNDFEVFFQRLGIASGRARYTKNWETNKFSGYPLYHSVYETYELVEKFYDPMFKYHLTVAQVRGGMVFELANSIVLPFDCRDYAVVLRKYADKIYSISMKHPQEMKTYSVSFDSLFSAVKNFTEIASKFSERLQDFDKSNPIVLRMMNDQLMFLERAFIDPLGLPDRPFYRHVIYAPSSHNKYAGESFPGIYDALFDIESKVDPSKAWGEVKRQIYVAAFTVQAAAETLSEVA
Conditions: not given
`O=NC1C(=O)N([C@@H](CCCCNC(=O)OCc2ccccc2)C(=O)O)C(=O)N([C@@H](CCC(=O)O)C(=O)O)C1=O` (stereo partly drawn) [P088, (2S)-2-(3-((S)-5-(Benzyloxycarbonylamino)-1-carboxypentyl)-5-nitroso-2,4,6-trioxotetrahydropyrimidin-1(2H)-yl)pentanedioic Acid] showed an inhibition constant Ki of more than 0.407 µM.

In turn, `O=C(O)CC[C@@H](C(=O)O)N1C(=O)C([N+](=O)[O-])C(=O)N([C@@H](CCCCNC(=O)OCc2ccc([N+](=O)[O-])cc2)C(=O)O)C1=O` (stereo partly drawn) [P089, (2S)-2-(3-((S)-1-Carboxy-5-((((4-nitrobenzyl)oxy)carbonyl)amino)pentyl)-5-nitro-2,4,6-trioxotetrahydropyrimidin-1(2H)-yl)pentanedioic Acid] came in with a Ki of more than 0.407 µM.

`O=C(O)CC[C@H](NC(=O)CN(O)C(=O)CCCc1ccc(-n2cc(CCCF)nn2)cc1)C(=O)O` [P090, (S)-2-(2-(4-(4-(4-(3-Fluoropropyl)-1H-1,2,3-triazol-1-yl)phenyl)-N-hydroxybutanamido)acetamido)pentanedioic Acid] showed an inhibition constant Ki of 0.313 µM.

For `O=C(O)CC[C@H](NC(=O)N(O)[C@@H](CCCCNC(=O)c1ccc(-n2cc(CCCF)nn2)cc1)C(=O)O)C(=O)O` [P092, (S)-2-(3-((S)-1-Carboxy-5-(4-(4-(3-fluoropropyl)-1H-1,2,3-triazol-1-yl)benzamido)pentyl)-3-hydroxyureido)pentanedioic Acid], the Ki was 0.031 µM. This Ki is about 10-fold lower than that of the molecule before.

In turn, `CN(C(=O)N[C@@H](CCC(=O)O)C(=O)O)[C@@H](CCCCNC(=O)CCCc1ccc(-n2cc(CCCF)nn2)cc1)C(=O)O` [P103] had a Ki of 0.235 µM.

The experiment is the same for the next values; noted with them: compound at 10 μM.
`C[C@H](NC(=O)N[C@@H](CCC(=O)O)C(=O)O)C(=O)NCCF` [P082, (S)-2-(3-((S)-1-((2-Fluoroethyl)amino)-1-oxopropan-2-yl)ureido)pentanedioic Acid]: the “PSMA Blkg % (10 μM)” value turned out to be 4%.

As for `CN(CCCC[C@H](NC(=O)N[C@@H](CCC(=O)O)C(=O)O)C(=O)O)C(=O)OCc1ccccc1` [P083, (9S,13S)-4-Methyl-3,11-dioxo-1-phenyl-2-oxa-4,10,12-triazapentadecane-9,13,15-tricarboxylic Acid], the “PSMA Blkg % (10 μM)” value came out at 100%.

For `O=C(O)CC[C@@H](C(=O)O)n1c(=O)[nH]c(=O)n([C@@H](CCCCNC(=O)OCc2ccccc2)C(=O)O)c1=O` [P084, (S)-2-(3-((S)-5-(Benzyloxycarbonylamino)-1-carboxypentyl)-2,4,6-trioxo-1,3,5-triazinan-1-yl)pentanedioic Acid], the “PSMA Blkg % (10 μM)” value is 19%.

Regarding `Cn1c(=O)n([C@@H](CCCCNC(=O)OCc2ccccc2)C(=O)O)c(=O)n([C@@H](CCC(=O)O)C(=O)O)c1=O` [P085, (S)-2-(3-((S)-5-(Benzyloxycarbonylamino)-1-carboxypentyl)-5-methyl-2,4,6-trioxo-1,3,5-triazinan-1-yl)pentanedioic Acid], the “PSMA Blkg % (10 μM)” value is given as 0%.

Consider `CN1C(=O)N(C(CCC(=O)O)C(=O)O)C(=O)[C@@H]1CCCCNC(=O)c1ccc(N=[N+]=[N-])cc1` (stereo partly drawn) [P086, 2-((S)-4-(4-(4-Azidobenzamido)butyl)-3-methyl-2,5-dioxoimidazolidin-1-yl)-pentanedioic Acid], for which the “PSMA Blkg % (10 μM)” value is reported as 25%.

As to `Cc1nc(N[C@@H](CCC(=O)O)C(=O)O)sc1C(=O)O` [P087, (S)-2-((5-Carboxy-4-methylthiazol-2-yl)amino)pentanedioic Acid], the “PSMA Blkg % (10 μM)” value came out at 3%.

Take `O=C(O)CC[C@H](NC(=O)CN(O)C(=O)CCCc1ccc(-n2cc(CCCF)nn2)cc1)C(=O)O` [P090, (S)-2-(2-(4-(4-(4-(3-Fluoropropyl)-1H-1,2,3-triazol-1-yl)phenyl)-N-hydroxybutanamido)acetamido)pentanedioic Acid]: the “PSMA Blkg % (10 μM)” value is recorded as 85%.

Turning to `NC1C(=O)N([C@@H](CCCCNC(=O)OCc2ccccc2)C(=O)O)C(=O)N([C@@H](CCC(=O)O)C(=O)O)C1=O` (stereo partly drawn) [P091, (2S)-2-(5-Amino-3-((S)-5-(benzyloxycarbonylamino)-1-carboxypentyl)-2,4,6-trioxotetrahydropyrimidin-1(2H)-yl)pentanedioic Acid], the “PSMA Blkg % (10 μM)” value turned out to be 23%.

Consider `O=C(O)CC[C@H](NC(=O)N(O)[C@@H](CCCCNC(=O)c1ccc(-n2cc(CCCF)nn2)cc1)C(=O)O)C(=O)O` [P092, (S)-2-(3-((S)-1-Carboxy-5-(4-(4-(3-fluoropropyl)-1H-1,2,3-triazol-1-yl)benzamido)pentyl)-3-hydroxyureido)pentanedioic Acid], for which the “PSMA Blkg % (10 μM)” value was 99%.

As to `O=C(O)CC[C@H](NC(=O)CN(O)C(=O)CCCCn1cc(CCCF)nn1)C(=O)O` [P093, (S)-2-(2-(5-(4-(3-Fluoropropyl)-1H-1,2,3-triazol-1-yl)-N-hydroxypentanamido)-acetamido)pentanedioic Acid], the “PSMA Blkg % (10 μM)” value came to 16%.

Consider `O=C(O)CC[C@@H](C(=O)O)N1C(=O)CC(=O)N([C@@H](CCCCNC(=O)CCCc2ccc(-n3cc(CCCF)nn3)cc2)C(=O)O)C1=O` [P094, (S)-2-(3-((S)-1-Carboxy-5-(4-(4-(4-(3-fluoropropyl)-1H-1,2,3-triazol-1-yl)phenyl)butanamido)pentyl)-2,4,6-trioxotetrahydropyrimidin-(2H)-yl)pentanedioic Acid], for which the “PSMA Blkg % (10 μM)” value stood at 7%.

For the molecule `O=C(O)CC[C@@H](C(=O)O)N1C(=O)CC(=O)N(Cc2ccccc2)C1=O` [P095, (S)-2-(3-Benzyl-2,4,6-trioxotetrahydropyrimidin-1(2H)-yl)pentanedioic Acid], the “PSMA Blkg % (10 μM)” value was found to be 4%.

On to `O=C(O)CC[C@@H](C(=O)O)N1C(=O)/C(=C(/O)Cn2cc(CCCF)nn2)C(=O)N(Cc2ccccc2)C1=O` [P096, (S,E)-2-(3-Benzyl-5-(2-(4-(3-fluoropropyl)-1H-1,2,3-triazol-1-yl)-1-hydroxyethylidene)-2,4,6-trioxotetrahydropyrimidin-1(2H)-yl)pentanedioic Acid], for which the “PSMA Blkg % (10 μM)” value is given as 3%.

On to `O=C(O)CCC(NC(=O)C(=O)N[C@@H](CCC(=O)O)C(=O)O)C(=O)O` (stereo partly drawn) [P098, (2′S)-2,2′-(Oxalylbis(azanediyl))dipentanedioic Acid], for which the “PSMA Blkg % (10 μM)” value is 23%.

In the case of `O=C(O)CCC(NS(=O)(=O)N[C@@H](CCC(=O)O)C(=O)O)C(=O)O` (stereo partly drawn) [P099, (2S)-2,2′-(Sulfonylbis(azanediyl))dipentanedioic Acid], the “PSMA Blkg % (10 μM)” value was found to be 0%.

In the case of `O=C(O)CC[C@H](NC(=O)NNC(=O)CCCc1ccc(-n2cc(CCCF)nn2)cc1)C(=O)O` [P100, (S)-2-(2-(4-(4-(4-(3-Fluoropropyl)-1H-1,2,3-triazol-1-yl)phenyl)butanoyl)-hydrazinecarboxamido)pentanedioic Acid], the “PSMA Blkg % (10 μM)” value is on record as 3%.

For `O=C(O)CC[C@@H](C(=O)O)N1C(=O)/C(=C(\O)CCCc2ccc(-n3cc(CCCF)nn3)cc2)C(=O)N(Cc2ccccc2)C1=O` [P101, (S,Z)-2-(3-Benzyl-5-(4-(4-(4-(3-fluoropropyl)-1H-1,2,3-triazol-1-yl)phenyl)-1-hydroxybutylidene)-2,4,6-trioxotetrahydropyrimidin-1(2H)-yl)pentanedioic Acid], the “PSMA Blkg % (10 μM)” value came out at 0%.

With `O=C(O)CC[C@@H](C(=O)O)N1C(=O)/C(=C(\O)CCCCn2cc(CCCF)nn2)C(=O)N(Cc2ccccc2)C1=O` [P102, (S,Z)-2-(3-Benzyl-5-(5-(4-(3-fluoropropyl)-1H-1,2,3-triazol-1-yl)-1-hydroxypentylidene)-2,4,6-trioxotetrahydropyrimidin-1(2H)-yl)pentanedioic Acid], the “PSMA Blkg % (10 μM)” value is on record as 0%.

Consider `CN(C(=O)N[C@@H](CCC(=O)O)C(=O)O)[C@@H](CCCCNC(=O)CCCc1ccc(-n2cc(CCCF)nn2)cc1)C(=O)O` [P103], for which the “PSMA Blkg % (10 μM)” value is reported as 91%.

As for `CCC1(CC)C(=O)N([C@@H](CCCCN(Cc2ccc([N+](=O)[O-])cc2)Cc2ccc([N+](=O)[O-])cc2)C(=O)O)C(=O)N([C@@H](CCC(=O)O)C(=O)O)C1=O` [P104, (S)-2-(3-((S)-5-(Bis(4-nitrobenzyl)amino)-1-carboxypentyl)-5,5-diethyl-2,4,6-trioxotetrahydropyrimidin-1(2H)-yl)pentanedioic Acid], the “PSMA Blkg % (10 μM)” value is reported as 7%.

On to `CCC1(CC)C(=O)N([C@@H](CCCCN(Cc2ccc([N+](=O)[O-])cc2)C(=O)CCCCn2cc(CCCF)nn2)C(=O)O)C(=O)N([C@@H](CCC(=O)O)C(=O)O)C1=O` [P105, (S)-2-(3-((S)-1-Carboxy-5-(5-(4-(3-fluoropropyl)-1H-1,2,3-triazol-1-yl)-N-(4-nitrobenzyl)pentanamido)pentyl)-5,5-diethyl-2,4,6-trioxotetrahydropyrimidin-1(2H)-yl)pentanedioic Acid], for which the “PSMA Blkg % (10 μM)” value is 5%.

Take `O=C(O)CC[C@@H](C(=O)O)N1C(=O)N([C@@H](CCCCNC(=O)OCc2ccccc2)C(=O)O)C(=O)C2(CCC2)C1=O` [P106, (2S)-2-(8-((S)-5-(Benzyloxycarbonylamino)-1-carboxypentyl)-5,7,9-trioxo-6,8-diazaspiro[3.5]nonan-6-yl)pentanedioic Acid]: the “PSMA Blkg % (10 μM)” value is given as 67%.

Take `CCC1(CC)C(=O)N([C@@H](CCCCNS(=O)(=O)c2ccc([N+](=O)[O-])cc2)C(=O)O)C(=O)N([C@@H](CCC(=O)O)C(=O)O)C1=O` [P107, (S)-2-(3-((S)-1-Carboxy-5-(4-nitrophenylsulfonamido)pentyl)-5,5-diethyl-2,4,6-trioxotetrahydropyrimidin-1(2H)-yl)pentanedioic Acid]: the “PSMA Blkg % (10 μM)” value was found to be 19%.

`CCC1(CC)C(=O)N([C@@H](CCCCNC(=O)NCc2ccccc2)C(=O)O)C(=O)N([C@@H](CCC(=O)O)C(=O)O)C1=O` [P108, (S)-2-(3-((S)-5-(3-benzylureido)-1-carboxypentyl)-5,5-diethyl-2,4,6-trioxotetrahydropyrimidin-1(2H)-yl)pentanedioic Acid]: the “PSMA Blkg % (10 μM)” value came out at 11%.

Take `O=C(O)CCC(C(=O)O)n1cc(COc2ccc3ccc(=O)oc3c2)nn1` (stereo not drawn) [P109, 2-(4-(((2-oxo-2H-chromen-7-yl)oxy)methyl)-1H-1,2,3-triazol-1-yl)pentanedioic Acid]: the “PSMA Blkg % (10 μM)” value was 24%.

For the molecule `CCC1(CC)C(=O)N([C@@H](CCCCNCc2ccc([N+](=O)[O-])cc2)C(=O)O)C(=O)N([C@@H](CCC(=O)O)C(=O)O)C1=O` [P110, (S)-2-(3-((S)-1-carboxy-5-(4-nitrobenzylamino)pentyl)-5,5-diethyl-2,4,6-trioxotetrahydropyrimidin-1(2H)-yl)pentanedioic Acid], the “PSMA Blkg % (10 μM)” value was 8%.

In the case of `O=C(O)CC[C@H](NC(=O)CCN(O)C(=O)CCCc1ccc(-n2cc(CCCF)nn2)cc1)C(=O)O` [P111, (S)-2-(3-(4-(4-(4-(3-Fluoropropyl)-1H-1,2,3-triazol-1-yl)phenyl)-N-hydroxybutanamido)propanamido)pentanedioic Acid], the “PSMA Blkg % (10 μM)” value came to 9%.

As to `CCC1(CC)C(=O)N([C@@H](CCCCNCc2ccc(OC)cc2)C(=O)O)C(=O)N([C@@H](CCC(=O)O)C(=O)O)C1=O` [P112, (S)-2-(3-((S)-1-Carboxy-5-(4-methoxybenzylamino)pentyl)-5,5-diethyl-2,4,6-trioxotetrahydropyrimidin-1(2H)-yl)pentanedioic Acid], the “PSMA Blkg % (10 μM)” value is listed as 4%.

The Ki is a dissociation constant, usually derived from enzyme kinetics or from competition with a known ligand. Read a high Ki as a looser hold on the target.
